The target of experiment [1] is EGFR (Homo sapiens, UniProt P00533). The experiment in a line: Z'-LYTE / Adapta biochemical kinase assay, EGFR. The note with it: for inhibition at 0.1 µM: concentration of 100 nM/liter, read-out: Percent Inhibition of target enzymes, EGFR. The source says: The Z′-LYTE® biochemical assay employs a fluorescence-based, coupled-enzyme format and is based on the differential sensitivity of phosphorylated and non-phosphorylated peptides to proteolytic cleavage. The peptide substrate is labeled with two fluorophores—one at each end—that make up a FRET pair. In the primary reaction, the kinase transfers the gamma-phosphate of ATP to a single tyrosine, serine or threonine residue in a synthetic FRET-peptide. In the secondary reaction, a site-specific protease recognizes and cleaves non-phosphorylated FRET-peptides. Phosphorylation of FRET-peptides suppresses cleavage by the Development Reagent. Cleavage disrupts FRET between the donor (i.e., coumarin) and acceptor (i.e., fluorescein) fluorophores on the FRET-peptide, whereas uncleaved, phosphorylated FRET-peptides maintain FRET. A ratiometric method, which calculates the ratio (the Emission Ratio) of donor emission to acceptor emission after excitation of the donor fluorophore at 400 nm, is used to quantitate reaction progress.
A significant benefit of this ratiometric method for quantitating reaction progress is the elimination of well-to-well variations in FRET-peptide concentration and signal intensities. As a result, the assay yields very high Z′-factor values (>0.7) at a low percent phosphorylation.
Both cleaved and uncleaved FRET-peptides contribute to the fluorescence signals and therefore to the Emission Ratio. The extent of phosphorylation of the FRET-peptide can be calculated from the Emission Ratio. The Emission Ratio will remain low if the FRET-peptide is phosphorylated (i.e., no kinase inhibition) and will be high if the FRET-peptide is non-phosphorylated (i.e., kinase inhibition).
Enzyme: The ADAPTA universal kinase assay is a homogenous, fluorescent based immunoassay for the detection of ADP. In contrast to ATP depletion assays, the ADAPTA assay is extremely sensitive to ADP formation such that a majority of the signal change occurs in the first 10-20% conversion of ATP to ADP. This makes the ADAPTA universal kinase assay ideally suited for use with low activity kinases.
The principle of the ADAPTA universal kinase assay is outlined below. The assay itself can be divided into two phases: a kinase reaction phase, and an ADP detection phase. In the kinase reaction phase, all components required for the kinase reaction are added to the well, and the reaction is allowed to incubate for 60 minutes. After the reaction, a detection solution consisting of a europium labeled anti-ADP antibody, an Alexa Fluor® 647 labeled ADP tracer, and EDTA (to stop the kinase reaction) is added to the assay well. ADP formed by the kinase reaction (in the absence of an inhibitor) will displace the Alexa Fluor® 647 labeled ADP tracer from the antibody, resulting in a decrease in the TR-FRET signal. In the presence of an inhibitor, the amount of ADP formed by the kinase reaction is reduced, and the resulting intact antibody-tracer interaction results in a high TR-FRET signal.
Test Compounds: The Test Compounds are screened in 1% DMSO (final) in the well. For 10 point titrations, 3-fold serial dilutions are conducted from the starting concentration of the customer’s choosing.
Peptide/Kinase Mixtures: All Peptide/Kinase Mixtures are diluted to a 2X working concentration in the appropriate Kinase Buffer.
ATP Solution: All ATP Solutions are diluted to a 4X working concentration in Kinase Buffer (50 mM HEPES pH 7.5, 0.01% BRIJ-35, 10 mM MgCl2,1 mM EGTA). ATP Km apparent is previously determined using a Z′-LYTE® assay.
Development Reagent Solution: The Development Reagent is diluted in Development Buffer.
Assay Protocol: Bar-coded Corning, low volume NBS, black 384-wellplate (Corning Cat. #4514) 1. 2.5 µL - 4X Test Compound or 100 nL 100X plus 2.4 µL kinase buffer. 2. 5 µL - 2X Peptide/Kinase Mixture. 3. 2.5 µL - 4X ATP Solution. 4. 30-second plate shake. 5. 60-minute Kinase Reaction incubation at room temperature. 6. 5 µL - Development Reagent Solution. 7. […]

For experiment [2], the system named is NCI-H226. The experiment is described as follows: NCI COMPARE panel (SRB growth inhibition), NCI-H226. The note with it: Homo sapiens; Non-Small Cell Lung Cancer, NCI-H226, 48 h. Format: cell-based. The method, then: (§1) The human tumor cell lines of the cancer screening panel are grown in RPMI 1640 medium containing 5% fetal bovine serum and 2 mM L-glutamine. For a typical screening experiment, cells are inoculated into 96 well microtiter plates in 100 µL at plating densities ranging from 5,000 to 40,000 cells/well depending on the doubling time of individual cell lines. After cell inoculation, the microtiter plates are incubated at 37° C., 5% CO2, 95% air and 100% relative humidity for 24 h prior to addition of experimental drugs.
(§2) After 24 h, two plates of each cell line are fixed in situ with TCA, to represent a measurement of the cell population for each cell line at the time of drug addition (Tz). Experimental drugs are solubilized in dimethyl sulfoxide at 400-fold the desired final maximum test concentration and stored frozen prior to use. […]
(§3) Following drug addition, the plates are incubated for an additional 48 h at 37° C., 5 % CO2, 95% air, and 100% relative humidity. […] Bound stain is subsequently solubilized with 10 mM trizma base, and the absorbance is read on an automated plate reader at a wavelength of 515 nm. […] Using the seven absorbance measurements [time zero, (Tz), control growth, (C), and test growth in the presence of drug at the five concentration levels (Ti)], the percentage growth is calculated at each of the drug concentrations levels. Percentage growth inhibition is calculated as: […]

The subject of experiment [3] is OVCAR-3. The experiment in a line: NCI COMPARE panel (SRB growth inhibition), OVCAR-3. It is filed as cell-based. The note with it: Homo sapiens; Ovarian Cancer, OVCAR-3, 48 h. The method, then: as §1, §2, §3
The subject of experiment [4] is CAKI-1. The experiment is described as follows: NCI COMPARE panel (SRB growth inhibition), CAKI-1. It is filed as cell-based. The note with it: Homo sapiens; Renal Cancer, CAKI-1, 48 h. The procedure:
as §1, §2, §3

In general, inhibition refers to the change of the read-out against control, counted positive when it falls. By GI50 is commonly meant the concentration at which growth is held to half of that of the control. Read a low GI50 as greater sensitivity of the cells. By IC50 is commonly meant the concentration that gives 50% inhibition.

Sequence of EGFR (P00533 25-1210): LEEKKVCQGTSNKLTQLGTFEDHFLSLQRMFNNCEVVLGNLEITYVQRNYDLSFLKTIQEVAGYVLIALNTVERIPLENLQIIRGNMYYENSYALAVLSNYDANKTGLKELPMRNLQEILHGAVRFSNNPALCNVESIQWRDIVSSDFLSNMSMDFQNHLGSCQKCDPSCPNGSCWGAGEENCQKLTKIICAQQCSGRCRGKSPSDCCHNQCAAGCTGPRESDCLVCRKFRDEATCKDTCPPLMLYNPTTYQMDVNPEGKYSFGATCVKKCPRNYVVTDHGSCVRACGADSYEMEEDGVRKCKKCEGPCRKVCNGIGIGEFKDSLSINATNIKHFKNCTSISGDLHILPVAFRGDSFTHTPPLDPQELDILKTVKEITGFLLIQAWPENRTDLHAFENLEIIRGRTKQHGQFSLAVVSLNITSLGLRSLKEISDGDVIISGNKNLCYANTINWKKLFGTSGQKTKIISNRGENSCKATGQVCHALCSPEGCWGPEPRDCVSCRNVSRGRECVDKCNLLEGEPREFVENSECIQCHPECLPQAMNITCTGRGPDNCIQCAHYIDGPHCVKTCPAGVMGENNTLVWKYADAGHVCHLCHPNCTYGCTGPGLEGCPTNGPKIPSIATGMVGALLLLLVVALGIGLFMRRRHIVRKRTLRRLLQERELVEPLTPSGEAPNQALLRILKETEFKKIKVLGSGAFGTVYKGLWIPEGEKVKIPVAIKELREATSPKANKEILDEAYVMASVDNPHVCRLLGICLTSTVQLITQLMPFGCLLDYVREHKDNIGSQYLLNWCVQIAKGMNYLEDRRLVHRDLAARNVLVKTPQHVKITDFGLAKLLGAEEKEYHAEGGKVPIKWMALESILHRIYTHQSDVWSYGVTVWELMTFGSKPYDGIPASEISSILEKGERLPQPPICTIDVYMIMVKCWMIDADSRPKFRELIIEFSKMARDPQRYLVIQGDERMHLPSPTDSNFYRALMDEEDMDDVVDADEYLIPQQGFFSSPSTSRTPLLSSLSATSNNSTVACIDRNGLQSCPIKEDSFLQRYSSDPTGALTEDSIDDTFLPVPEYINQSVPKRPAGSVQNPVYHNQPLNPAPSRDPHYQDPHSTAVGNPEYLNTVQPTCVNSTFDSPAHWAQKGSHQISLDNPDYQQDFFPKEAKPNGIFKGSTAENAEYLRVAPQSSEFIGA

Consider `CS(=O)(=O)Nc1cc(-c2ccc3ncc(C#N)c(Nc4cccc(Cl)c4F)c3c2)cnc1Cl` [Compound 10, N-[2-chloro-5-[4-(3-chloro-2-fluoro-anilino)-3-cyano-6-quinolyl]-3-pyridyl]methanesulfonamide], for which the inhibition at 0.1 µM in experiment [1] was greater than 90%. In addition, the GI50 is greater than 250 nM in experiment [2], greater than 250 nM in experiment [3] and no more than 75 nM in experiment [4].
Turning to `CS(=O)(=O)Nc1cc(-c2ccc3ncnc(Nc4cccc(Cl)c4F)c3c2)cnc1Cl` [Compound 6, N-[2-chloro-5-[4-(3-chloro-2-fluoro-anilino)quinazolin-6-yl]-3-pyridyl] methanesulfonamide], the IC50 in experiment [1] (EGFR) is no more than 2 nM. Further, the inhibition at 0.1 µM in experiment [1] is greater than 90%. In addition, the GI50 in experiment [2] is greater than 250 nM; in experiment [3], 75 to 125 nM; in experiment [4], no more than 75 nM.

The values are drawn from patent publication US20230133958A1, “COMPOUNDS USEFUL IN MODULATING EGFR AND PI3K” (Mekanistic Therapeutics LLC, priority 2021, published 2023).
